Reference: ChEMBL document CHEMBL1201862, “PubChem BioAssay data set” (2004)
Where a name gives a salt, the structure may show the parent alone. Calls of active or inactive are those of the source.

Legend:
SUMO-activating enzyme = SUMO-activating enzyme (Homo sapiens, UniProt Q9UBT2); assay: blockers of UBC9-mediated SUMO conjugation – biochemical, AlphaScreen, SUMOylation inhibitor project, confirmation (AID 2018); assay type: functional
Cytochrome P450 2C9 = Cytochrome P450 2C9 (Homo sapiens, UniProt P11712)
P388/ADR = assay: cells; assay type: functional; conditions: Mus musculus
SN12K1 = assay: cells; assay type: functional; conditions: Homo sapiens
P388 = assay: cells; assay type: functional; conditions: Mus musculus
[1] = viability of uninfected HEp-2 cells – cell-based, HTS, cytotoxicity control for RSV inhibitor project, dose response (AID 2410); assay type: functional; conditions: human respiratory syncytial virus
Protein Wnt-3a = Protein Wnt-3a (Mus musculus, UniProt P27467); assay: antagonism of Wnt3a pathway luciferase reporter – Wnt-LIGHT cells, luminescence, selectivity assay for Gli-SUFU antagonist project, dose response (AID 651570); assay type: functional; conditions: read-out: IC50_Mean;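 note: Wnt-LIGHT reporter cells stimulated with conditioned medium from Wnt3a-producing cells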
[2] = target: T1, Carboxy-terminal domain RNA polymerase II polypeptide A small phosphatase 1 (Homo sapiens, UniProt Q9GZU7); assay: CTDSP1 inhibitors, concentration-response, biochemical, absorbance readout, ultra-high-throughput screen actives (AID 540297); assay type: functional
T1 sequence (Q9GZU7 whole entry): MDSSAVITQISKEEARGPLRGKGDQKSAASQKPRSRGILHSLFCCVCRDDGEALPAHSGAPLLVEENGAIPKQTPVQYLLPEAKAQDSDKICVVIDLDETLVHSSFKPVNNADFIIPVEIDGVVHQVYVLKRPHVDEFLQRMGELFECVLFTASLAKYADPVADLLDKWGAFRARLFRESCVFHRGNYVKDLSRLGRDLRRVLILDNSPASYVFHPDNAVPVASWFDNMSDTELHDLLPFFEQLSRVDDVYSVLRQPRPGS

[3] = HIV-1 AD8 envelope cell-cell fusion blockers – cherry-pick, dose response (AID 652062); assay type: functional, cell-based;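 note: luciferase signal from cell-cell fusion driven by HIV-1 clade B AD8 Env; potency is for inhibitors of fusion seen as a drop in luminescence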
[4] = blockers of HIV-1 envelope-mediated cell-cell fusion – cherry-pick, dose response (AID 652057); assay type: functional, cell-based
Nonstructural protein 1 = Nonstructural protein 1 (Influenza A virus, UniProt Q194T2); assay type: functional, Influenza A virus (A/California/07/2009(H1N1))
HEK293 [5] = assay: EBV LMP1 TES2 canonical NF-kB signalling blockers – cell-based, HEK293, luciferase, cherry-pick, dose response (AID 588343); assay type: functional; conditions: Homo sapiens
[6] = target: T2, Rac GTPase-activating protein 1 (Homo sapiens, UniProt Q9H0H5); assay: blockers of MgcRacGAP-driven Rac1 GTP hydrolysis – biochemical, ADP Hunter fluorescence, primary and confirmatory, confirmation (AID 624330); assay type: functional
T2 sequence (Q9H0H5 whole entry): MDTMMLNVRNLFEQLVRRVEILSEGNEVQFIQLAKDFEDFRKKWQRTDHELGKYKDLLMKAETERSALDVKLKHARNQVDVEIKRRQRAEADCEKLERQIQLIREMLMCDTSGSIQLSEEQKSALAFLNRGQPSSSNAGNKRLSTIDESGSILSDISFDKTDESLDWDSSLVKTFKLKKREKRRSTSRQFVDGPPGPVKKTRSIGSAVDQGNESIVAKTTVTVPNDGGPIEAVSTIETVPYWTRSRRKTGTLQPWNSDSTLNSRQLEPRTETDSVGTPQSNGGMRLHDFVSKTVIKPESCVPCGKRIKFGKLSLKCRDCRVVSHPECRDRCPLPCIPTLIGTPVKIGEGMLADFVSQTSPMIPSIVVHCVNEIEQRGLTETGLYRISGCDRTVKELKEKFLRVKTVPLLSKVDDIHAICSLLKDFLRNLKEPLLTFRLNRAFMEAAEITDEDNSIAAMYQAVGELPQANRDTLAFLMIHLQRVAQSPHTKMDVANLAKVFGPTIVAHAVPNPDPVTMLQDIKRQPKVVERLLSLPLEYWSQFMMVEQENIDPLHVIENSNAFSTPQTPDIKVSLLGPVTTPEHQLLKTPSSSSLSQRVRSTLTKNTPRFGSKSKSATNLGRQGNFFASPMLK

[7] = viability loss in CEM21 cells – cell-based, CellTiter-Glo luminescence, cherry-picked, cytotoxicity control for viral fusion inhibitor project, dose response (AID 652042); assay type: functional;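 note: potency for signal decrease meaning cytotoxicity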
[8] = target: T3, High affinity choline transporter 1 (Homo sapiens, UniProt Q9GZV3); assay: human choline transporter blockers, potency – cell-based, 5-point CRC, membrane potential dye, dose response (AID 504840); assay type: functional
T3 sequence (Q9GZV3 whole entry): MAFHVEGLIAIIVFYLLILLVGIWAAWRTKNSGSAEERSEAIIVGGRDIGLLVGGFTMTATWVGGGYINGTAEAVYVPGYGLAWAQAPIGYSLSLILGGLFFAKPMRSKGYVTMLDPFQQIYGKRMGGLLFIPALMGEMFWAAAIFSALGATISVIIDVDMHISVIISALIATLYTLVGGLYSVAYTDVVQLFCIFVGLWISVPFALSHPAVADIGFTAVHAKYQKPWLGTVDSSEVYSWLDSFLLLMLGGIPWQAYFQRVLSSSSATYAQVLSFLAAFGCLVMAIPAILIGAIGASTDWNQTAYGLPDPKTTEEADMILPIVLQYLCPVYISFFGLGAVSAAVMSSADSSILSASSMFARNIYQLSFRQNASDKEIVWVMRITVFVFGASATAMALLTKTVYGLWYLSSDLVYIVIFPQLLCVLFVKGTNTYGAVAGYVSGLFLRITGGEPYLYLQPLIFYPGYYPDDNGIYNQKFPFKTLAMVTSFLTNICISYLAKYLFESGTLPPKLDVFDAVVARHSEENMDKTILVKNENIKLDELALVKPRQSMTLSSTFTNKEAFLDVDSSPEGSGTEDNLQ

[9] = target: T4, E3 ubiquitin-protein ligase XIAP (Homo sapiens, UniProt P98170); assay: small molecules displacing peptide from XIAP – biochemical, IAP family, fluorescence polarization (AID 1018); assay type: functional
[10] = target: T4, E3 ubiquitin-protein ligase XIAP; assay: Counter Screen using XIAP-Bir3 for Chemical Antagonists of Bir1/2 domains of IAP-family anti-apoptotic proteins. [Related pubchem assays (depositor defined):AID1018, AID1449, AID1514, AID1638, AID1749, AID1750, AID488957, AID488963]
HEK293 [11] = assay: NOD2 signaling inhibitors in MDP-stimulated cells, cell-based, uHTS, luminescence (AID 2001); assay type: functional; conditions: Homo sapiens
HEK293 [12] = assay: cells; assay type: functional, cell-based; conditions: Homo sapiens
HEK293 [13] = assay: cells; assay type: functional, cell-based; conditions: Homo sapiens; remark: listed apart in the source
HEK293 [14] = assay: inhibition of NOD1-driven NF-kB reporter – cell-based, luminescence, uHTS, primary screen (AID 1578); assay type: functional; conditions: Homo sapiens
[15] = bead-based luminescence quenchers, dual-tagged ARNT – biochemical, AlphaScreen, cherry-pick, artefact control for ARNT-TACC3 interaction inhibitor project, dose response (AID 651705); assay type: functional;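 note: AlphaScreen bead proximity signal that flags compounds interfering with the detection technology; potency reflects signal decrease which marks the compound as an assay artifact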
Cytochrome P450 3A4 = Cytochrome P450 3A4 (Homo sapiens, UniProt P08684); conditions: Potency;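 note: confirmatory qHTS run detecting inhibitors and substrates of CYP3A4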
H9c2 = assay: cells; assay type: functional, cell-based; conditions: Rattus norvegicus, H9c2, Myocardium;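 note: confirmatory concentration-response retest of ultra-high-throughput screening hits for modulation of myocardial damage; cell death induced by hydrogen peroxide oxidative stress; compound pretreatment for 60 min then peroxide exposure for 2 h; potency is for protecting the cells against peroxide damage rather than for killing them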
Estrogen receptor = target: T5, Estrogen receptor (Homo sapiens, UniProt P03372);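 note: potency for inhibiting coactivator peptide recruitment to the receptor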
T5 sequence (P03372 whole entry): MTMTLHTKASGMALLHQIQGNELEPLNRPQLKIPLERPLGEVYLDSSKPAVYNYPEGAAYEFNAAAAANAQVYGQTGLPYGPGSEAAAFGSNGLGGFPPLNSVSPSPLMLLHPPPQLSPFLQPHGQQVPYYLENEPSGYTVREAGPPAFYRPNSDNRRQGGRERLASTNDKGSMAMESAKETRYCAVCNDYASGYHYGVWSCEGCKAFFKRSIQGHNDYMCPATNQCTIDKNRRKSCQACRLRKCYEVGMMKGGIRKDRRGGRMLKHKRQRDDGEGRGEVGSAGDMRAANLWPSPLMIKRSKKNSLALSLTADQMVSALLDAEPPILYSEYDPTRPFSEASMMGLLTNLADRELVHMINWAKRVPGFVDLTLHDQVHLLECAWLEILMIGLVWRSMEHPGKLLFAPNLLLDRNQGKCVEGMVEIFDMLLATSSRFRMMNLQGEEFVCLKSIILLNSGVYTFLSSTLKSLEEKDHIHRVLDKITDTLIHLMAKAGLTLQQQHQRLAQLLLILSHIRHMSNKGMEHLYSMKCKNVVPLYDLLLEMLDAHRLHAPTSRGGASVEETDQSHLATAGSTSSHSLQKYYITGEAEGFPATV

INS1 = assay: INS-1E survival protection against cytokine death – cell-based, luminescence, retest, dose response (AID 449756); assay type: functional; conditions: Rattus norvegicus;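 note: cell death triggered by IL-1 beta plus TNF-alpha plus IFN-gamma mixture; protective hits raise ATP signal compared with cytokine alone wells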
[16] = microbe, parasite or virus in culture; assay type: functional; conditions: Mycobacterium tuberculosis
[17] = NIH3T3 cell viability loss – ATP luminescence, mouse fibroblasts, counter-screen, dose response (AID 2010); assay type: functional, cell-based;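 note: cells exposed to compound for about 90 hours before reading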
[18] = Trypanosoma cruzi growth suppression in host cells – NIH3T3 host cells, beta-gal luminescence, confirmation (AID 2044); assay type: functional, cell-based;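 note: intracellular parasites grown in NIH/3T3 mouse fibroblasts as host cells; luminescent beta-galactosidase reporter signal from transgenic T. cruzi replicating inside host cells; inhibitors lower the luminescence signal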

T4 sequence (P98170 whole entry): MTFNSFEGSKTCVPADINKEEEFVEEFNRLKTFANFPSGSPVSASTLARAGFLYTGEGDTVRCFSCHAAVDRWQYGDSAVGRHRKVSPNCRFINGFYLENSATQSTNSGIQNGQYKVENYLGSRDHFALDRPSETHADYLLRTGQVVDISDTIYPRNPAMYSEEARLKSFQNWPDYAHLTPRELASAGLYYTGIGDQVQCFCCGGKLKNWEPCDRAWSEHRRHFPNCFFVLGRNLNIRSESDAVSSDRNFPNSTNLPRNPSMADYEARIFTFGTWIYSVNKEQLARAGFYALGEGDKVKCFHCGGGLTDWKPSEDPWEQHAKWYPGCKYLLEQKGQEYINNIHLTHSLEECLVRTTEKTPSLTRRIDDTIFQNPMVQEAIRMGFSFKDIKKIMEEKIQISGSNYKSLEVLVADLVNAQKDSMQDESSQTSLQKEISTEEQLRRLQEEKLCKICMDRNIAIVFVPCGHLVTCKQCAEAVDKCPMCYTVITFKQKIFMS
Protein Wnt-3a, sequence (P27467 whole entry, the tested form may be a part): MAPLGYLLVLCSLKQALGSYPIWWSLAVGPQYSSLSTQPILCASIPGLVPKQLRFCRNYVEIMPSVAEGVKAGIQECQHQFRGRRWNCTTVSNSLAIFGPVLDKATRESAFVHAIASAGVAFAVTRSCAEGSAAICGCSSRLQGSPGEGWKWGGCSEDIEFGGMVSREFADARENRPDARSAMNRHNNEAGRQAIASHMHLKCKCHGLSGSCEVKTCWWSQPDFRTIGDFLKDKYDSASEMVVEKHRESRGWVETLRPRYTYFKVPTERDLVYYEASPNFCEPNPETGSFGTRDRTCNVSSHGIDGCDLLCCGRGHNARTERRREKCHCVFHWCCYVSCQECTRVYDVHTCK
Cytochrome P450 3A4, sequence (P08684 whole entry): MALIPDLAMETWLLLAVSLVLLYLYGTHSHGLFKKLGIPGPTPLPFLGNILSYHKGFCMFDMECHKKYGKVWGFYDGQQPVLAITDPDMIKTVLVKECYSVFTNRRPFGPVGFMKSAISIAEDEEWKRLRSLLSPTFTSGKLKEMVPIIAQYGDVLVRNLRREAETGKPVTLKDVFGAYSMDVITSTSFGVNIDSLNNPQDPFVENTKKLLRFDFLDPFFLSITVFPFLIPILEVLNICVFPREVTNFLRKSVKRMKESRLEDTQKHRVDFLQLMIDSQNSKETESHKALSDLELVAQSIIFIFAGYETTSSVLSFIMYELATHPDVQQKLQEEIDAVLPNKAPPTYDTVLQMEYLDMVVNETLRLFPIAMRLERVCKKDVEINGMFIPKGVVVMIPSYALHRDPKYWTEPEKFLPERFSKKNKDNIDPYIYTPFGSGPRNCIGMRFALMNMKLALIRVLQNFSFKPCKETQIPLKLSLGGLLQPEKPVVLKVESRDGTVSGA
SUMO-activating enzyme, sequence (Q9UBE0 whole entry): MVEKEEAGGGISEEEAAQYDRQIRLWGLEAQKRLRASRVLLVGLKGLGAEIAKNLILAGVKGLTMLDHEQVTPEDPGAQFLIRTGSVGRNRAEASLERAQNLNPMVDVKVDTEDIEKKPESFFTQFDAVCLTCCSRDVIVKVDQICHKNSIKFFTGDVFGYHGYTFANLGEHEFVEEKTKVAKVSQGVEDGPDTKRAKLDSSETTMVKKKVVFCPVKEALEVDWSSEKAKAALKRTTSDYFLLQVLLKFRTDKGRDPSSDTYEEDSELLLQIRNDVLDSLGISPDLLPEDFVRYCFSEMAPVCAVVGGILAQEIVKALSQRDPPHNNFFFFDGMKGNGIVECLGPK
SUMO-activating enzyme, sequence (Q9UBT2 whole entry): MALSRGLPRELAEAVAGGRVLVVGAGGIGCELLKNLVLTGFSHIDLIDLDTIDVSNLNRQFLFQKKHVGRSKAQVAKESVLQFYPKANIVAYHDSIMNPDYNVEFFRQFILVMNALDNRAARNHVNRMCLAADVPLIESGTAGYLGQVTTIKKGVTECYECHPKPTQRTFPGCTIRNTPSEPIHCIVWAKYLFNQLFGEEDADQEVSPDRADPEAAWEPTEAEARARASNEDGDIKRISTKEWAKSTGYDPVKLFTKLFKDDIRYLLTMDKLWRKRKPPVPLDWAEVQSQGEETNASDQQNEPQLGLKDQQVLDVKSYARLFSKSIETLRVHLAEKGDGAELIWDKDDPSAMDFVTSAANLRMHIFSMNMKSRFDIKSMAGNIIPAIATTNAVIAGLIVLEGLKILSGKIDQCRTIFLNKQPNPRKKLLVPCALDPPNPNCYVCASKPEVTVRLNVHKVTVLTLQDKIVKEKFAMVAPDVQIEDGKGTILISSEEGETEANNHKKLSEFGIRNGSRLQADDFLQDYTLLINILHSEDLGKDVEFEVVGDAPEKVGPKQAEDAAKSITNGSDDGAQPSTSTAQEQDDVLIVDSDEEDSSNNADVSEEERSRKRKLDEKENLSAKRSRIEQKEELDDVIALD
Nonstructural protein 1, sequence (Q194T2 whole entry): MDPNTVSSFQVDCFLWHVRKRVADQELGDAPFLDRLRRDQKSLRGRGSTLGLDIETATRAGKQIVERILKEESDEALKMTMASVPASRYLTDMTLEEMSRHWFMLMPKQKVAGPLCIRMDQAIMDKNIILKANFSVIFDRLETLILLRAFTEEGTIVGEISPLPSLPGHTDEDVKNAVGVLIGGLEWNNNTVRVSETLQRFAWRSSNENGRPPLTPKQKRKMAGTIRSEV
Cytochrome P450 2C9, sequence (P11712 whole entry): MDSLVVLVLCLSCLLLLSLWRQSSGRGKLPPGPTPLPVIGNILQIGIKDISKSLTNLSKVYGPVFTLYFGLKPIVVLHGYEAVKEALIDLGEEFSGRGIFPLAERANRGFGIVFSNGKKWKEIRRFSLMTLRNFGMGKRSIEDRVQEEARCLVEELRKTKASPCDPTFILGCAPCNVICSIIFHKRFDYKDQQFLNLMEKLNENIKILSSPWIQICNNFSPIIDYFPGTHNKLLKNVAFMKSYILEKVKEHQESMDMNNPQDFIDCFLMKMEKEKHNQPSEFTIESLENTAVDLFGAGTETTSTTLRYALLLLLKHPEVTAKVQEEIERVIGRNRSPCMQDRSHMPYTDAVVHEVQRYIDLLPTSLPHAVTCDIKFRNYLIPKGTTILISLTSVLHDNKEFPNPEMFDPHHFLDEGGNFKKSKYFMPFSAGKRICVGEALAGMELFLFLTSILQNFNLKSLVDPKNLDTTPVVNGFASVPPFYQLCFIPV

CC(=O)Nc1ccc(NC(=O)Cn2c(-c3ccc(F)cc3)cnc2SCC(=O)Nc2c(C)cccc2C)cc1
IC50 (SUMO-activating enzyme): 61.6 µM (active) | AC50 (Cytochrome P450 2C9): 17.8 µM (inconclusive)

COc1cc(C2c3cc4c(cc3[C@@H](Nc3cccc(CO)c3)C3COC(=O)[C@H]23)OCO4)cc(OC)c1O (stereo partly specified)
GI50 (P388/ADR): 0.124 µM (active) | GI50 (SN12K1): 0.0925 µM (active) | GI50 (P388): < 0.01 µM (active)

COc1ccccc1CCNC(=O)C(=O)NCCC1CCCCN1S(=O)(=O)c1cccs1 (stereo unspecified)
CC50 [1]: 36.7 µM (active) | IC50 (Protein Wnt-3a): 12.3 µM (active)

O=C(N/N=C/c1ccc2c(c1)OCO2)c1cc(-c2ccco2)nc2ccccc12
IC50 [2]: 10.8 µM (active)

Oc1ccc(C=NNc2ccccn2)c(O)c1
AC50 [3]: 5.5 µM (active) | AC50 [4]: 8.53 µM (active) | IC50 (Nonstructural protein 1): 2.71 µM (active) | AC50 (HEK293 [5]): 10.4 µM (active) | IC50 [6]: 27 µM (active) | AC50 [7]: 8.15 µM (active)

Cc1cccc(CCNC(=O)C2CCCN(c3ncnc4c3nc3n4CCCCC3)C2)c1 (stereo unspecified)
IC50 [8]: 11.8 µM (active)

CC1CCCN(C(C(=O)Nc2ccc(C(C)C)cc2)c2ccc3c(c2)OCO3)C1 (stereo unspecified)
IC50 [9]: > 100 µM (not active) | IC50 [10]: > 100 µM (inactive)

O=C(Nc1ccccc1-c1nnn(CC(=O)N2CCCc3ccccc32)n1)c1ccc(Cl)cc1
IC50 [9]: > 100 µM (not active) | IC50 [10]: > 100 µM (inactive)

COc1ccc(NS(=O)(=O)c2ccc3oc(SC(C)C(N)=O)nc3c2)cc1 (stereo unspecified)
IC50 (HEK293 [11]): 20 µM (inactive) | IC50 (HEK293 [12]): > 20 µM (inactive) | IC50 (HEK293 [13]): > 20 µM (inactive) | EC50 (HEK293 [14]): 6.14 µM (active)

CC(C)=CC(=O)OC1C2C(C)=CC(=O)C(O)C2(C)C2C3(O)OCC24C(CC(=O)OC14)C(C)C3O (stereo unspecified)
GI50 (P388/ADR): 0.102 µM (active) | GI50 (SN12K1): 0.02 µM (active) | GI50 (P388): 0.000946 µM (active)

COc1cc(OC)cc(C(=O)Nc2nnc(-c3cccnc3)o2)c1
AC50 [15]: 97.6 µM (active)

COc1ccc(S(=O)(=O)N2CCOC2CNC(=O)C(=O)NCCc2c[nH]c3ccccc23)cc1 (stereo unspecified)
IC50 [9]: > 100 µM (not active) | IC50 [10]: > 100 µM (inactive)

O=C(Cn1cnc2c(nnn2-c2ccccc2)c1=O)NCc1ccc(F)cc1
IC50 [2]: 6.76 µM (active)

C/C(CC(=O)NC1CCCCC1)=N\NC(=O)Cc1ccc(-c2ccccc2)cc1
IC50 [2]: 7.87 µM (active)

CCCCN1CCCCC1C(=O)Nc1c(C)cccc1C (stereo unspecified) [BUPIVACAINE HYDROCHLORIDE]
AC50 (Cytochrome P450 3A4): 31.6 µM (inconclusive)

NCC(Cl)C(O)c1c[nH]c(N)n1 (stereo unspecified)
GI50 (P388/ADR): 0.232 µM (active) | GI50 (SN12K1): 0.507 µM (active) | GI50 (P388): 0.0353 µM (active)

Cc1cc(-c2nn3c(-c4ccccc4)nnc3s2)c2ccccc2n1
IC50 (H9c2): > 79 µM (inactive) | IC50 [9]: > 100 µM (not active) | IC50 (Estrogen receptor): 21.6 µM (active) | IC50 [10]: > 100 µM (inactive)

CC1CCCCC1NS(=O)(=O)c1ccc(S(=O)(=O)NCc2ccncc2)cc1 (stereo unspecified)
AC50 (INS1): 3.4 µM (active) | IC50 (Protein Wnt-3a): 1.43 µM (active)

COC(=O)[C@H]1C[C@H]2CC[C@H](O)C[C@H]2N1CC1CC1
AC50 (Cytochrome P450 3A4): 25.1 µM (inconclusive)

O=C(NC(Cc1ccc(Cl)cc1)C(=O)O)c1ccc(I)cc1 (stereo unspecified)
GI50 (P388/ADR): 54.8 µM (inactive) | GI50 (SN12K1): > 100 µM (inactive) | GI50 (P388): 64.7 µM (inactive)

COc1cc(/C=C(/C(=O)c2cccs2)c2nc3ccccc3[nH]2)ccc1O
IC50 (HEK293 [11]): 4.02 µM (active) | IC50 (HEK293 [12]): 2.96 µM (active) | IC50 (HEK293 [13]): > 20 µM (inactive) | AC50 (INS1): 18 µM (active) | EC50 (HEK293 [14]): 12.1 µM (active)

S=C(Nc1ccccc1)N1CCC(Cc2ccccc2)CC1
IC50 (Protein Wnt-3a): 18 µM (active)

CCOc1ncccc1C(=O)OCC(=O)Nc1nnc(-c2ccccc2)o1
AC50 [15]: 107 µM (active)

c1ccc(CCN2CCN(c3ncnc4c3cnn4-c3ccccc3)CC2)cc1
IC50 [8]: 30.2 µM (active) | CC50 [16]: > 40 µM (active) | EC50 [17]: > 30 µM (not active) | EC50 [18]: 2.38 µM (active)
